Experimental data published in patent US20110124574A1, “RESTORATION OF ESTROGEN RECEPTOR-(ALPHA) ACTIVITY” (priority 2008, published 2011).
Where no end group is shown, it is not given here. The star is where a group is joined. For = O=C*

B1: recombinant Wnt-5a: recombinant Wnt-5a protein (R&D Systems) (protein, UniProt P41221 62-380, looked up)
Protein Wnt-5a: IIGAQPLCSQLAGLSQGQKKLCHLYQDHMQYIGEGAKTGIKECQYQFRHRRWNCSTVDNTSVFGRVMQIGSRETAFTYAVSAAGVVNAMSRACREGELSTCGCSRAARPKDLPRDWLWGGCGDNIDYGYRFAKEFVDARERERIHAKGSYESARILMNLHNNEAGRRTVYNLADVACKCHGVSGSCSLKTCWLQLADFRKVGDALKEKYDSAAAMRLNSRGKLVQVNSRFNSPTTQDLVYIDPSPDYCVRNESTGSLGTQGRLCNKTSEGMDGCELMCCGRGYDQFKTVQTERCHCKFHWCCYVKCKKCTEIVDQFVCK

Columns and labels:
[1] = test system: ERα; assay: ERα mRNA by RT-PCR in stimulated MDA-MB-468 cells; format: cell-based, human; settings: time points 6, 12, 18 and 24 hours
Protocol: (§1) Breast cancer cells were grown in 6 well plates and stimulated with recombinant Wnt-5a protein (rW5a) or the Wnt-5a derived Foxy-5 peptide (F5), for 6, 12, 18 or 24 h. RNA was extracted at the end time point, cDNA synthesized and subjected to RT-PCR for ERα and the housekeeping gene, β-actin. A: MDA-MB-231 breast cancer cells, B: MDA-MB-468 breast cancer cells. The positive control (Pos) is RNA extracted from T47D cells which express ERα. The negative control represents a water control.
(§2) Stimulation of cells was performed with recombinant Wnt-5a (0.6 μg/ml) and recombinant Wnt-3a (0.1 μg/ml and in a control experiment, 0.6 μg/ml) (R&D Systems Abington, UK) for times as indicated. The Wnt-5a derived formylated hexapeptide, Foxy-5 (formyl-MDGCEL) (SEQ. ID. NO. 1) designed in the laboratory of the inventors, and a formylated random hexapeptide (formyl-MSADVG) (SEQ: ID: NO: 16) were either synthesized by Pepscan Presto (Lelystad, The Netherlands) or Inbiolabs (Tallinn, Estonia). The peptides were purified by RP-HPLC and mass spectrometry, and the >95% pure peptides were synthesized three times. […]
(§3) RNA extraction was performed in a designated clean RNA area with the addition of 500 μl TRIzol to each sample. […] The RNA concentration was measured using a Nanodrop Spectrophotometer ND-1000 (Bio-Rad (Hercules Calif.)). […]

[2] = test system: progesterone receptor (PR); assay: Progesterone receptor mRNA by semi-nested RT-PCR in MDA-MB-231 cells; format: cell-based, human; settings: after 96 hours stimulation
From the text: A: Following treatment, cells were lysed and subjected to SDS-PAGE, transferred to nitrocellulose membranes and blotted for phospho-ERα expression. The positive control (Pos) represents cell lysates from T47D cells expressing ERα B and C: RNA was also extracted from stimulated cells and samples tested for progesterone receptor (PR) (B) and pS2 (C) mRNA using semi-nested RT-PCR. The positive control (Pos) is RNA extracted from T47D cells that express ERα. The negative control represents a water control. PCR results are representative of three separate experiments.
cDNA was synthesized from 1 μg of total RNA using M-MuLV reverse transcriptase (Fermentas) in a MJ Mini Personal Thermal Cycler (Bio-Rad (Hercules Calif.)). All RT-PCR was performed in a designated clean PCR hood. RT-PCR was performed using a master mix containing with 5 μl of 10× buffer, 5 μl of 25 mM MgCl2, 1 μl 10 mM dNTP, 1 μl forward primer, 1 μl reverse primer and 0.2 μl of Taq polymerase (Fermentas (Ontario, Canada)) per sample. For detection of the progesterone receptor (PR), semi nested RT-PCR was performed to increase sensitivity, whereby 10 μl of the initial PCR reaction product was added to a second PCR reaction with a second internal reverse primer. Both A and β isoforms are amplified with these primers.

[3] = test system: ERα; assay: ERα protein expression by Western blot in stimulated 4T1 cells; format: cell-based, mouse; settings: stimulation for 24 and 48 hours
Protocol: Breast cancer cells were grown in 6 well plates, and stimulated with recombinant Wnt-5a protein (rW5a), the Wnt-5a derived Foxy-5 peptide (F5), recombinant Wnt-3a protein (rW3a), or a formylated random hexapeptide (Rdm) for 24 or 48 h. Following treatment cells were lysed and subjected to SDS-PAGE, transferred to nitrocellulose membranes and blotted for ERα expression. A: MDA-MB-231 cells stimulated with recombinant Wnt-5a, Foxy-5, Wnt-3a, Rdm. B: MDA-MB-468 cells stimulated with recombinant Wnt-5a or Foxy-5. C: 4T1 cells stimulated with recombinant Wnt-5a or Foxy-5. Positive controls (Pos) were included in order to confirm the correct band size for ERα. Two different positive controls were used: T47D cell lysates known to express ERα and MDA-MB-231 cells transiently transfected with a full length ERα plasmid, resulting in extremely high ERα expression (top row, right panel, third row, right panel). […]
Cells were lysed in Triton lysis buffer (50 mM Tris (pH7.5), 1% Triton x-100, 140 mM NaCl, 0.5 mM EDTA, 0.5 MgCl2, 10 mM NaF) with the addition of fresh leupeptin (1 μg/ml), Pefabloc (2 mM), aprotinin (20 μg/ml) and Na3VO4 (4 mM). […] Scanning and densitometry was performed using a Bio-Rad (Hercules Calif.) GS-800 densitometer with Quantity One software. […]

[4] = test system: ERα; assay: ERα mRNA by RT-PCR in stimulated MDA-MB-231 cells; format: cell-based, human; settings: time points 6, 12, 18 and 24 hours
Protocol: as §1, §2, §3

Row | Molecule | stimulation time after which ERα mRNA was detected [1] | PR mRNA [2] | ERα levels [3] | stimulation time after which ERα mRNA was detected [4]
1 | formyl-MDGCEL (For-MDGCEL; listed as Homo sapiens) [Foxy-5] | 6 h | detected | upregulated | 6 h
2 | B1 | 12 h | detected | upregulated | 12 h
